Counter-ions that a name gives are not always drawn.

Common to all, as to assay type: cell-based
Test [1] has as its system Intracellular cAMP levels. In words: Measurement of intracellular cAMP levels in differentiated L6 cells. As to conditions: compound 1×10^−5 M, 15 min; for Emax at 10 µM: Rattus norvegicus, L6, 0.25 h, read-out: Biological example 2: intracellular cAMP levels, activity compared to that of isoproterenol. As to the method:
(§1) L6-myoblasts were grown in Dulbecco's Modified Eagle's Medium (DMEM) containing 1 g/L glucose supplemented with 10% fetal bovine serum, 2 mM L-Glutamine, 50 U/mL penicillin, 50 μg/mL streptomycin and 10 mM HEPES. Cells were plated at 1×10^5 cells per mL in 24-well plates. After reaching 90% confluence the cells were grown in medium containing 2% FBS for 7 days where upon cells differentiated into myotubes.
Differentiated cells were serum-starved overnight and stimulated with an agonist, final concentration 1×10^−5 M, for 15 min in stimulation buffer (HBSS supplemented with 1% BSA, 5 mM HEPES and 1 mM IBMX, pH 7.4). The medium was aspirated and 100 μL of 95% EtOH was added to each well of the 24-well plate and cells were kept at −20° C. overnight. The EtOH was allowed to evaporate and 500 μL of lysis buffer (1% BSA, 5 mM HEPES and 0.3% Tween-20, pH 7.4) was added to each well. The plate was kept at −80° C. for 30 min and then at −20° C. until the day of detection when the samples were thawed. Intracellular cAMP levels were detected using an alpha screen cAMP kit (6760635D from Perkin Elmer). The activity for each compound is compared to that of isoproterenol.
(In general: Cyclic AMP is a second messenger, typically raised through Gs and lowered through Gi signalling.)

Test [2] relates to L6-myotubes. Kind of test: Glucose uptake in L6-myotubes in the presence of the β2-antagonist ICI-118,551. The settings on record: compound 1×10^−5 M, ICI-118,551 1×10^−5 M. The procedure: as §1
Differentiated L6-myotubes were serum-starved overnight in medium containing 0.5% fatty-acid free BSA and were incubated with the β2-adrenergic receptor antagonist ICI-118,551 at a final concentration of 1×10^−5 M for 30 min. The cells were stimulated with a compound of the invention, at a final concentration of 1×10^−5 M. After 1 h 40 min the cells were washed twice with warm, glucose free medium or PBS and additional portions of the compound of the invention and the antagonist were added. After 20 min the cells were exposed to 50 nM ^3H-2-deoxyglucose for 10 min before washed with ice cold glucose free medium or PBS three times and lysed with 0.2 M NaOH, 400 μL/well, for 1 h at 60° C. The cell lysate was mixed with 4 mL scintillation buffer (Emulsifier Safe, Perkin Elmer) and the radioactivity was detected in a β-counter (Tri-Carb 4810TR, Perkin Elmer). The activity for each compound is compared to that of isoproterenol.

For test [3], the system named is L6-myotubes. Kind of test: Glucose uptake (3H-2-deoxyglucose) in differentiated L6-myotubes. The settings on record: compound 1×10^−5 M; for Emax at 10 µM: read-out: Biological example 1: glucose uptake, activity compared to that of isoproterenol. The procedure: as §1
Differentiated L6-myotubes were serum-starved overnight in medium containing 0.5% fatty-acid free BSA and stimulated with an agonist, with a final concentration of 1×10^−5 M. After 1 h 40 min the cells were washed with warm glucose free medium or PBS twice and another portion of agonist was added to the glucose free medium. After 20 min the cells were exposed to 50 nM ^3H-2-deoxyglucose for 10 min before washed with ice cold glucose free medium or PBS three times and lysed with 0.2 M NaOH, 400 μL/well, for 1 h at 60° C. The cell lysate was mixed with 4 mL scintillation buffer (Emulsifier Safe, Perkin Elmer) and the radioactivity was detected in a β-counter (Tri-Carb 4810TR, Perkin Elmer). The activity for each compound is compared to that of isoproterenol.

Take `CO[C@H]1CC[C@H](C[C@@H]2CC[C@H]([C@H](O)c3cccc(F)c3)N2)CC1.Cl` [Example 1, (R)-(3-Fluorophenyl)((2R,5S)-5-(((1r,4S)-4-methoxycyclohexyl)methyl) -pyrrolidin-2-yl)methanol hydrochloride]: the “Biological example 2: intracellular cAMP levels, activity compared to that of isoproterenol” value in test [1] was “− (less than 25%)”. The “Biological example 3: glucose uptake in the presence of the β2-antagonist ICI-118,551, activity compared to that of isoproterenol” value in test [2] was “− (less than 25%)”. Also, in test [3], the “Biological example 1: glucose uptake, activity compared to that of isoproterenol” value is reported as “+++ (more than 75% of that of isoproterenol)”.
As to `CO[C@H]1CC[C@H](C[C@@H]2CC[C@H]([C@@H](O)c3cccc(F)c3)N2)CC1.Cl` [Example 2, (S)-(3-Fluorophenyl)((2R,5S)-5-(((1r,4S)-4-methoxycyclohexyl) -methyl)pyrrolidin-2-yl)methanol hydrochloride], the “Biological example 2: intracellular cAMP levels, activity compared to that of isoproterenol” value in test [1] was “− (less than 25%)”. The “Biological example 3: glucose uptake in the presence of the β2-antagonist ICI-118,551, activity compared to that of isoproterenol” value in test [2] is “− (less than 25%)”. In test [3], the “Biological example 1: glucose uptake, activity compared to that of isoproterenol” value is “+++ (more than 75% of that of isoproterenol)”.
Turning to `CO[C@H]1CC[C@H](C[C@H]2CC[C@H]([C@H](O)c3cccc(F)c3)N2)CC1.Cl` [Example 3, (R)-(3-Fluorophenyl)((2R,5R)-5-(((1r,4R)-4-methoxycyclohexyl)-methyl) -pyrrolidin-2-yl)methanol hydrochloride], in test [1], the “Biological example 2: intracellular cAMP levels, activity compared to that of isoproterenol” value was “− (less than 25%)”. In test [2], the “Biological example 3: glucose uptake in the presence of the β2-antagonist ICI-118,551, activity compared to that of isoproterenol” value is given as “− (less than 25%)”. Also, the “Biological example 1: glucose uptake, activity compared to that of isoproterenol” value in test [3] is “+++ (more than 75% of that of isoproterenol)”.
As for `CO[C@H]1CC[C@H](C[C@@H]2CC[C@H]([C@H](O)c3ccccc3F)N2)CC1.Cl` [Example 5], the “Biological example 3: glucose uptake in the presence of the β2-antagonist ICI-118,551, activity compared to that of isoproterenol” value in test [2] is reported as “− (less than 25%)”.
As for `CO[C@H]1CC[C@H](C[C@H]2CC[C@H]([C@H](O)c3ccccc3F)N2)CC1.Cl` [Example 7, (R)-(2-Fluorophenyl)((2R,5R)-5-(((1r,4S)-4-methoxycyclohexyl)methyl) -pyrrolidin-2-yl)methanol hydrochloride], the results for the Emax at 10 µM in test [1] and in test [3] were 25 to 50% and greater than 75%, respectively. Also, the “Biological example 3: glucose uptake in the presence of the β2-antagonist ICI-118,551, activity compared to that of isoproterenol” value in test [2] is “− (less than 25%)”.
Turning to `CS(=O)(=O)N(Cc1ccccc1)[C@H]1CC[C@@H](C[C@@H]2CC[C@H]([C@H](O)c3cccc(F)c3)N2)CC1` [Example 37, N-Benzyl-N-((1R,4s)-4-(((2S,5R)-5-((R)-(3-fluorophenyl)(hydroxy)methyl) -pyrrolidin-2-yl)methyl)cyclohexyl)methanesulfonamide hydrochloride], the Emax at 10 µM in test [1] was less than 25%; in test [3] it was 50 to 75%.
The like results for `CS(=O)(=O)N[C@H]1CC[C@@H](C[C@@H]2CC[C@H]([C@H](O)c3cccc(F)c3)N2)CC1` [Example 38, N-((1R,4s)-4-(((2S,5R)-5-((R)-(3-Fluorophenyl)(hydroxy)methyl)pyrrolidin-2-yl)methyl)cyclohexyl)methanesulfonamide hydrochloride] were, in that order, less than 25% and greater than 75%.
The like results for `CS(=O)(=O)N(Cc1ccccc1)[C@H]1CC[C@@H](C[C@@H]2CC[C@H]([C@@H](O)c3cccc(F)c3)N2)CC1` [Example 39, N-Benzyl-N-((1R,4s)-4-(((2S,5R)-5-((S)-(3-fluorophenyl)(hydroxy) -methyl)pyrrolidin-2-yl)methyl)cyclohexyl)methanesulfonamide hydrochloride] were, in that order, less than 25% and 50 to 75%.
The like results for `CS(=O)(=O)N[C@H]1CC[C@@H](C[C@@H]2CC[C@H]([C@@H](O)c3cccc(F)c3)N2)CC1` [Example 40, N-((1R,4s)-4-(((2S,5R)-5-((S)-(3-fluorophenyl)(hydroxy)methyl)pyrrolidin-2-yl)methyl)cyclohexyl)methanesulfonamide hydrochloride] were, in that order, less than 25% and 50 to 75%.
Take `CC(=O)N(Cc1ccccc1)[C@H]1CC[C@H](C[C@@H]2CC[C@H]([C@H](O)c3cccc(F)c3)N2)CC1` [Example 41, N-Benzyl-N-((1S,4r)-4-(((2S,5R)-5-((R)-(3-fluorophenyl)(hydroxy) -methyl)pyrrolidin-2-yl)methyl)cyclohexyl)acetamide hydrochloride]: the Emax at 10 µM was less than 25% in test [1] and 25 to 50% in test [3].
For the compound `CC(=O)N[C@H]1CC[C@H](C[C@@H]2CC[C@H]([C@H](O)c3cccc(F)c3)N2)CC1.Cl` [Example 42, N-((1S,4r)-4-(((2S,5R)-5-((R)-(3-Fluorophenyl)(hydroxy)methyl)pyrrolidin-2-yl)methyl)cyclohexyl)acetamide hydrochloride], the “Biological example 2: intracellular cAMP levels, activity compared to that of isoproterenol” value in test [1] is “− (less than 25%)”. Also, the “Biological example 1: glucose uptake, activity compared to that of isoproterenol” value in test [3] (hydrochloride) was “++ (between 75 and 50%)”.
For the compound `CC(=O)N(Cc1ccccc1)[C@H]1CC[C@H](C[C@@H]2CC[C@H]([C@@H](O)c3cccc(F)c3)N2)CC1` [Example 43, N-Benzyl-N-((1S,4r)-4-(((2S,5R)-5-((S)-(3-fluorophenyl)(hydroxy)methyl) -pyrrolidin-2-yl)methyl)cyclohexyl)acetamide hydrochloride], the values for the Emax at 10 µM in test [1] and in test [3] were less than 25% and 50 to 75%, respectively.
The like results for `CC(=O)N[C@H]1CC[C@H](C[C@@H]2CC[C@H]([C@@H](O)c3cccc(F)c3)N2)CC1` [Example 44, N-((1S,4r)-4-(((2S,5R)-5-((S)-(3-Fluorophenyl)(hydroxy)methyl)pyrrolidin-2-yl)methyl)cyclohexyl)acetamide hydrochloride] were, in that order, less than 25% and 50 to 75%.
The like results for `CS(=O)(=O)N(Cc1ccccc1)[C@H]1CC[C@H](C[C@@H]2CC[C@H]([C@H](O)c3cccc(F)c3)N2)CC1` [Example 45, N-Benzyl-N-((1S,4r)-4-(((2S,5R)-5-((R)-(3-fluorophenyl)(hydroxy) -methyl)pyrrolidin-2-yl)methyl)cyclohexyl)methanesulfonamide hydrochloride] were, in that order, less than 25% and less than 25%.
The like results for `CS(=O)(=O)N[C@H]1CC[C@H](C[C@@H]2CC[C@H]([C@H](O)c3cccc(F)c3)N2)CC1` [Example 46, N-((1S,4r)-4-(((2S,5R)-5-((R)-(3-Fluorophenyl)(hydroxy)methyl)pyrrolidin-2-yl)methyl)cyclohexyl)methanesulfonamide hydrochloride] were, in that order, less than 25% and greater than 75%.
For `CS(=O)(=O)N(Cc1ccccc1)[C@H]1CC[C@H](C[C@@H]2CC[C@H]([C@@H](O)c3cccc(F)c3)N2)CC1` [Example 47, N-Benzyl-N-((1S,4r)-4-(((2S,5R)-5-((S)-(3-fluorophenyl)(hydroxy) -methyl)pyrrolidin-2-yl)methyl)cyclohexyl)methanesulfonamide hydrochloride], the Emax at 10 µM in test [1] and in test [3] was less than 25% in each case.
For `CS(=O)(=O)N[C@H]1CC[C@H](C[C@@H]2CC[C@H]([C@@H](O)c3cccc(F)c3)N2)CC1` [Example 48, N-((1S,4r)-4-(((2S,5R)-5-((S)-(3-Fluorophenyl)(hydroxy)methyl)pyrrolidin-2-yl)methyl)cyclohexyl)methanesulfonamide hydrochloride], the Emax at 10 µM is less than 25% in test [1] and 50 to 75% in test [3].

The record behind these values is patent US20240391871A1, “SUBSTITUTED HYDROXYMETHYL PYRROLIDINES AND MEDICAL USES THEREOF” (ATROGI AB, priority 2021, published 2024).
